Assay results: article PMC12463534, “Exploring the Anticancer Properties of 4-Phenylthiazole-Based Ru(II) and Os(II) Metallacycles Featuring 1-Methylimidazole as N-Donor Functionality” (Bioinorganic Chemistry and Applications, 2025)

Tests used:
Balb/c mice = assay: Toxicity experiments in Balb/c mice (MTD); details: mice, i.p.
Experimental: Finally, we were interested in the anticancer activity of selected complexes of our panel in an in vivo mouse setting. Before injecting the compounds in tumor-bearing mice, toxicity experiments were performed. […] On the last day of therapy, most animals were sacrificed and tissues as well as tumors collected. Only four mice (per group) were kept to get information on the impact of the drugs on the overall survival.

[1] = system: CH1/PA-1 ovarian teratocarcinoma cells; design: method as in PMID 38426897; details: MTT assay, exposure time 96 h; ref [5]; read-out: 50% inhibitory concentration CH1 (chlorido complexes, reference) (converted); cited from earlier work
[2] = system: A549 lung adenocarcinoma cells; design: method as in PMID 38426897; details: MTT assay, exposure time 96 h; ref [5]; read-out: 50% inhibitory concentration A549 (chlorido complexes, reference) (converted); cited from earlier work
[3] = system: HCT116 colorectal cancer cell line (2D); assay: Resazurin assay, HCT116 2D (monolayer) culture
[4] = system: HCT116 multicellular tumor spheroids (3D); assay: Resazurin assay, HCT116 3D multicellular tumor spheroids
Experimental: Both models were investigated by the fluorimetric resazurin assay after 96-h exposure.
HCT116 colorectal carcinoma cells (RRID:CVCL_0291 from ATCC) were cultivated in McCoy's 5A medium, supplemented with 10% heat-inactivated fetal bovine serum and 4 mM L-glutamine.
For 2D experiments, HCT116 cells were harvested from culture flasks by trypsinization, seeded in 100-μL aliquots into 96-well microculture plates (CytoOne, TC-treated, from Starlab) in densities of 2 × 10^3 cells per well, and incubated for 24 h prior to exposure to the test compounds. […] Stock solutions of test compounds were prepared in DMF, which were then diluted in McCoy's 5A-supplemented medium (not to exceed a final content of 0.5% v/v of organic solvent in the test plates), and serial dilutions were added in aliquots of 100 μL per well. […] After incubation for 4 h, fluorescence was measured with a microplate reader (Bio-Tek, SynergyHT) at a wavelength of 530 nm, additionally using a reference wavelength of 620 nm.

CT26 tumor = assay: Anticancer activity in CT26 tumor-bearing BALB/c mice; format: in vivo; details: i.p. 50 mg/kg, 5 times a week for two weeks, did not reach statistical significance
Experimental: Figure 5 Anticancer activity of 1c and 3c in vivo. CT26-bearing BALB/c mice were treated i.p. with 50 mg/kg for five consecutive days for 2 weeks. (a) Impact on tumor growth; data are presented as mean ± SEM. […] On Day 15, most of the animals were sacrificed and tissues collected for further analyses. Of each group, 4 animals were kept to assess the impact on overall survival, which is shown in (b). Statistical significance was tested by log-rank test and Mantel–Cox post-test, ^∗p < 0.01. (c) The ruthenium levels measured by ICP-MS in the collected tissue samples of the mice, which were sacrificed 2 h after the last treatment.
(§1) CT26 cells (5 × 10^5 cells in 50-μL serum-free medium) were injected subcutaneously (s.c.) into the right flank of 8–16-week-old BALB/c mice (Envigo Laboratories, San Pietro Al Natisone, Italy). After 3 days, therapy treatment started on five consecutive days for 2 weeks. Animals were treated i.p. with 50 mg/kg 1c and 3c (all dissolved in 10% DMSO in 0.9% NaCl, 12 mice per group). The solvent control animals received 10% DMSO in 0.9% NaCl. Every day, the animals were monitored for the overall health conditions and tumor size was measured regularly by caliper measurement. Tumor volumes (mm^3) were calculated using following formula: length × width^2/2. In the overall survival arm of the experiment, mice were sacrificed by cervical dislocation in the case of a tumor length > 20 mm or tumor ulceration or a decreased body weight of ∼20%. Tumor growth and possible side effects of the treatment were evaluated by daily recording the tumor size by caliper measurement and parameters of the animal's overall health conditions. In the tissue sampling arm at the experiment, the mice were sacrificed by cervical dislocation 2 h after the last treatment. Tumors as well as organs were collected. Additionally, blood was drawn and incubated for 25 min to allow blood clotting. To isolate serum and blood pellets, the blood was centrifuged for 10 min at 17,900 g at room temperature. The supernatant characterized as serum was transferred to a new tube and centrifuged again to remove residual red blood cells. All collected samples were stored at −20°C and further processed for platinum measurements via ICP-MS.

SW480 cells = assay: DCFH-DA assay, cellular ROS levels; format: cell-based, human; details: 2 h, concentration dependent
Experimental: For this approach, SW480 cells were subjected to the 2′,7′-dichlorofluorescin-diacetate (DCFH-DA) assay.
SW480 colon adenocarcinoma cells were trypsinized for 5 min in a humidified incubator at 37°C and under a 5% CO2 atmosphere. Supplemented MEM was added to stop trypsinization, and cells were centrifuged for 3 min at 1200 rpm (Heraeus Megafuge 1.0R). After cell counting, SW480 cells were seeded in 100-μL aliquots in densities of 2.5 × 10^4 cells/well into 96-well clear flat-bottom microplates (CytoOne, TC-treated, from Starlab). After incubation for 24 h, cells were washed with 200 μL of Hanks' balanced salt solution (HBSS; Sigma-Aldrich; supplemented with 1% heat-inactivated FCS). […] After washing cells with 200 μL of supplemented HBSS, serially diluted test compounds in phenol-red-free Opti-MEM (Gibco), supplemented with 1% heat-inactivated FCS, were added in 200-μl triplicates and tert-butyl hydroperoxide (TBHP) was applied as positive control. […] Blank-corrected values were calculated relative to negative controls (treated with drug-free supplemented Opti-MEM) from three independent experiments.

[5] = Ruthenium levels in tissues by ICP-MS; format: in vivo; details: CT26-bearing mice, 2 h after last injection
Experimental: Tumor-specific organs and blood serum, harvested from the other animals 2 h after the last injection (Figure 5(c)), were measured for the average ruthenium content by inductively coupled plasma mass spectrometry (ICP-MS) of tissue homogenates.
as §1, with “In the overall survival arm of the experiment, mice were sacrificed by cervical dislocation in the case of a tumor length > 20 mm or tumor ulceration or a decreased body weight of ∼20%.” left out
The ruthenium concentration was determined by ICP-MS analysis. Ruthenium and rhenium standards were derived from LabKings (LabKings B.V., The Netherlands). The total ruthenium content was determined with a quadrupole-based ICP-MS instrument Agilent 7800 (Agilent Technologies, Tokyo, Japan) equipped with the Agilent SPS 4 autosampler (Agilent Technologies, Tokyo, Japan) and a MicroMist nebulizer at a sample uptake rate of approximately 0.2 mL·min^−1. […] Argon was used as plasma gas (15 L·min^−1) and as carrier gas (∼1.08 L·min^−1). The integration time was set to 0.1 s, and measurements were performed in 6 replicates with 100 sweeps. Rhenium served as internal standard for ruthenium.

[6] = system: SW480 colon adenocarcinoma cells; design: method as in PMID 38426897; details: MTT assay, exposure time 96 h; ref [5]; read-out: 50% inhibitory concentration SW480 (chlorido complexes, reference) (converted); cited from earlier work
[7] = system: G4 forming sequences (h-Telo, bcl2, hTERT, Kit1, Kit2) and dsDNA; design: method as in PMID 38426897; details: recent work; ref [5]; cited from earlier work

With CS(=O)(=O)c1ccc(-c2cscn2)[c]([Ru][Cl])c1.Cc1ccc(C(C)C)cc1 [Compound 1c] as the molecule, how does the Tolerated dose (Balb/c mice) read?
Its Tolerated dose is “at least 50 mg/kg”.

And the IC50 [1]?
Its IC50 is 1.6 µM.

What about the IC50 [2] of the same molecule?
Its IC50 is 12 µM.

And the “Increase of cytotoxic activity by mesylation (1c vs 1a), 2D” value [3]?
The value was 2.8 times.

What about the IC50 ([3]; read-out: IC50 2D, resazurin assay, 96 h exposure) of the same molecule?
The IC50 was 6.5 ± 1.3 µM.

What about the “Enhancement of cytotoxic activity by mesylation (1c vs 1a), 3D” value ([4]; HCT116 3D) of the same molecule?
Its value is 3.5 fold.

And the IC50 ([4]; read-out: IC50 3D, HCT116 3D spheroids, resazurin assay, 96 h exposure)?
The IC50 was 8.9 ± 2.1 µM.

And the “Impact on tumor volume (anticancer activity)” value (CT26 tumor)?
Its value is “slight anticancer activity”.

What about the “Effect on intracellular ROS levels” value (SW480 cells) of the same molecule?
The value was “constantly decrease ROS levels with increasing concentrations”.

What about the “Kidney ruthenium levels, fold higher compared to 3c” value [5] of the same molecule?
The value was 10 fold.

What about the “Ruthenium level in liver” value [5] of the same molecule?
Its value is ~20 mg/kg.

And the “Ruthenium level in tumor” value [5]?
Its value is ~1 mg/kg.

What about the IC50 [6] of the same molecule?
Its IC50 is 5.1 µM.

What about the “Stabilization of DNA G-quadruplex structures” value [7] of the same molecule?
The value was “stabilize DNA G-quadruplex (G4) structures”.
